We go through 36 compounds from ChEMBL document CHEMBL4219073, “Development of selective inhibitors for the treatment of rheumatoid arthritis: (R)-3-(3-(Methyl(7H-pyrrolo[2,3-d]pyrimidin-4-yl)amino)pyrrolidin-1-yl)-3-oxopropanenitrile as a JAK1-selective inhibitor” (Bioorg Med Chem, 2018).

pIC50: −log10 of the molar value.

For data set [1], the target named is Tyrosine-protein kinase JAK2 (Homo sapiens, UniProt O60674). Format: ADME.
Description: Inhibition of recombinant human JAK2 (808-end residues) in presence of ATP
Data set [2] can be described thus: in vitro. As to conditions: mouse, microsomes.
Description: Metabolic stability in mouse liver microsomes assessed as parent compound remaining after 30 mins
Data set [3] deals with Tyrosine-protein kinase JAK1 (Homo sapiens, UniProt P23458).
Description: Inhibition of recombinant human JAK1 (866-end residues) in presence of ATP
Data set [4] is described as follows: in vitro. The following applies: human, microsomes.
Description: Metabolic stability in human liver microsomes assessed as parent compound remaining after 30 mins
Data set [5] is described as follows: in vitro. As to conditions: dog, microsomes.
Description: Metabolic stability in dog liver microsomes assessed as parent compound remaining after 30 mins
A short description of data set [6]: in vitro. The following applies: rat, microsomes.
Description: Metabolic stability in rat liver microsomes assessed as parent compound remaining after 30 mins

Broadly, the pIC50 is −log10 of the IC50, conventionally taken in molar units. A lower pIC50 goes with a high IC50. As usually defined, the fraction remaining is what is left of the initial amount, in per cent.

Tyrosine-protein kinase JAK2, sequence (O60674 whole entry): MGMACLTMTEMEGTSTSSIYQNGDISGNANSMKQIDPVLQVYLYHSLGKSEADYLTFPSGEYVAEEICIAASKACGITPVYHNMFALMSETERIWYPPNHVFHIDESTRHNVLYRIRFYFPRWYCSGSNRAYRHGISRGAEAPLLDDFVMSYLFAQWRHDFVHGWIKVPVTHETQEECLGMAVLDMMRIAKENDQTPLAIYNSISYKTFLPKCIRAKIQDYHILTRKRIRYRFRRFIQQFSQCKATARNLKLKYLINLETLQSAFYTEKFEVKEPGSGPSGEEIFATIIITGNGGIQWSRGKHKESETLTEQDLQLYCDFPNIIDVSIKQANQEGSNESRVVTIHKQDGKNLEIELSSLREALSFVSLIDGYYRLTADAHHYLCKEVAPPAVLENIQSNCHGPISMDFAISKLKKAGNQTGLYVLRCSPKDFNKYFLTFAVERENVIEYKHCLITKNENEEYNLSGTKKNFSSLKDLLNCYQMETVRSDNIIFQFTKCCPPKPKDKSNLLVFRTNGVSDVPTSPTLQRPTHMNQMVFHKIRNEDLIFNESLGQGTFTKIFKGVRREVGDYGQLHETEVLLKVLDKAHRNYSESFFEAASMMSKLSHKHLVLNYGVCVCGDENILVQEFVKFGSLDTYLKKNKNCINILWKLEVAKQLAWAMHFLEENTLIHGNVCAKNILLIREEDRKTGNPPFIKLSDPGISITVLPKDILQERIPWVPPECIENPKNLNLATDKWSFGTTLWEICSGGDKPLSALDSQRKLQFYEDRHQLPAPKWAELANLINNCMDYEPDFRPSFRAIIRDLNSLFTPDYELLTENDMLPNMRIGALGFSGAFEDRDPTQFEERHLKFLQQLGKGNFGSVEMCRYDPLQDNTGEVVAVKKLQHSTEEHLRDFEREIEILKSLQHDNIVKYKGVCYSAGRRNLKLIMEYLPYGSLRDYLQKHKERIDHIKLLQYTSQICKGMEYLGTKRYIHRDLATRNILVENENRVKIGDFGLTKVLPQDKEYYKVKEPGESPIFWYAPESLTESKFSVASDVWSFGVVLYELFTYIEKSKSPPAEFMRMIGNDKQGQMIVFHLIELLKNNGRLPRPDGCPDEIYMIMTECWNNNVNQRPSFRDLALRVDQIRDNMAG
Tyrosine-protein kinase JAK1, sequence (P23458 whole entry): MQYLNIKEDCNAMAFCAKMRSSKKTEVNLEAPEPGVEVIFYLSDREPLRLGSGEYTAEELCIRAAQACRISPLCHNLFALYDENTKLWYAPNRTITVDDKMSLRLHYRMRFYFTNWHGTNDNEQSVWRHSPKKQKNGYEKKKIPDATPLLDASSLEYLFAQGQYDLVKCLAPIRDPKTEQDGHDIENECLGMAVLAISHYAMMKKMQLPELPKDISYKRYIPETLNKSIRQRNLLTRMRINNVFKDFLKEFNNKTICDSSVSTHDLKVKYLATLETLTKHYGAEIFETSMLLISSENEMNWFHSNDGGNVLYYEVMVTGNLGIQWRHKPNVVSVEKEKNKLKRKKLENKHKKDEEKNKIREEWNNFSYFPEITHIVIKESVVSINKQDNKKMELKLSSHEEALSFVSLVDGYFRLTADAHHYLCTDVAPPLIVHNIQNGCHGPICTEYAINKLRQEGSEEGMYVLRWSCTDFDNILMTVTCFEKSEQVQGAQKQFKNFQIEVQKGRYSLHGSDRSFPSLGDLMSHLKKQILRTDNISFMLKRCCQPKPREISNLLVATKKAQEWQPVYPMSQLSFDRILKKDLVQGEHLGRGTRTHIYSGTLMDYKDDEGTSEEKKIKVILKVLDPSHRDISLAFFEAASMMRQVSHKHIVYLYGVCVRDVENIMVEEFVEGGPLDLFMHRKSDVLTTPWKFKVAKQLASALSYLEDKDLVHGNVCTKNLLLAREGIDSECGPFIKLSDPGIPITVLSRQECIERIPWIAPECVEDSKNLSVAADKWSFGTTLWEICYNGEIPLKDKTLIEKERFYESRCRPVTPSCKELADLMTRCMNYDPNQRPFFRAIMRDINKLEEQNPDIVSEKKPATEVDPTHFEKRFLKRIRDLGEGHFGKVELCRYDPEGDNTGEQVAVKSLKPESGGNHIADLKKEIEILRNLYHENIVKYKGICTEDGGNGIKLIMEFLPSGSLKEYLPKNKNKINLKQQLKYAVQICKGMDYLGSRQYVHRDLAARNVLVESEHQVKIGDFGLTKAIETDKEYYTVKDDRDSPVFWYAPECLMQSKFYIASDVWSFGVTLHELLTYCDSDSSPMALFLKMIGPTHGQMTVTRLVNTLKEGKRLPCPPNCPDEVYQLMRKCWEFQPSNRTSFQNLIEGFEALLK

For `CN(c1ncnc2[nH]ccc12)[C@@H]1CCN(S(=O)(=O)c2cccc([N+](=O)[O-])c2)C1`, the pIC50 is 7.74 in data set [1] and 8.72 in data set [3]. Further, the share remaining at 0.5 h in data set [2] is 3.1%; in data set [4], 13.4%; in data set [5], 10.4%; in data set [6] it was 2.5%.

For `CN(c1ncnc2[nH]ccc12)[C@H]1CN(C(=O)CC#N)CC12CCC2`, the pIC50 is 6.35 in data set [1] and 7.80 in data set [3].

As for `CCCCN1CC[C@@H](N(C)c2ncnc3[nH]ccc23)C1`, the pIC50 in data set [1] was 4.57; in data set [3], 6.13.

Turning to `CN(c1ncnc2[nH]ccc12)[C@@H]1CCN(CCC#N)C1`, the pIC50 is 5.72 in data set [1] and 7.28 in data set [3].

Consider `CN(c1ncnc2[nH]ccc12)[C@@H]1CCN(S(=O)(=O)N2CCOCC2)C1`, for which the pIC50 in data set [1] was 5.36; in data set [3], 6.57.

`CN(c1ncnc2[nH]ccc12)[C@@H]1CCN(S(=O)(=O)c2ccccc2F)C1`: the pIC50 in data set [1] was 6.89; in data set [3], 7.60.

In the case of `CN(c1ncnc2[nH]ccc12)[C@@H]1CCN(C(=O)CN=[N+]=[N-])C1`, the figures for the pIC50 in data set [1] and in data set [3] were 6.77 and 8.00, respectively.

As for `CC(C)CC(=O)N1CC[C@@H](N(C)c2ncnc3[nH]ccc23)C1`, the pIC50 in data set [1] is 5.41; in data set [3], 7.15.

On to `N#Cc1cccc(S(=O)(=O)N2CC[C@@H](Nc3ncnc4[nH]ccc34)C2)c1`, for which the pIC50 in data set [1] is 5.72; in data set [3], 6.29.

For `CN(c1ncnc2[nH]ccc12)[C@@H]1CCN(S(=O)(=O)c2cn(C)cn2)C1`, the pIC50 in data set [1] was 4.72; in data set [3] it was 6.19.

`Cc1cccc(S(=O)(=O)N2CC[C@@H](N(C)c3ncnc4[nH]ccc34)C2)c1`: the results for the pIC50 in data set [1] and in data set [3] were 6.14 and 7.54, respectively.

For the compound `CC(C)S(=O)(=O)N1CC[C@@H](N(C)c2ncnc3[nH]ccc23)C1`, the pIC50 in data set [1] is 5.32; in data set [3], 6.77.

For `CCN(c1ncnc2[nH]ccc12)[C@@H]1CCN(S(=O)(=O)c2cccc(C#N)c2)C1`, the pIC50 is 6.96 in data set [1] and 7.72 in data set [3].

In the case of `N#Cc1cccc(S(=O)(=O)N2CC[C@@H](N(CC3CC3)c3ncnc4[nH]ccc34)C2)c1`, the results for the pIC50 in data set [1] and in data set [3] were 5.85 and 7.77, respectively.

For `CN(c1ncnc2[nH]ccc12)[C@@H]1CCN(S(=O)(=O)C(F)(F)F)C1`, the results for the pIC50 in data set [1] and in data set [3] were 5.35 and 6.85, respectively.

For the compound `CN(c1ncnc2[nH]ccc12)[C@@H]1CCN(S(=O)(=O)c2cccc(F)c2)C1`, the values for the pIC50 in data set [1] and in data set [3] were 7.28 and 7.85, respectively.

Consider `CN(c1ncnc2[nH]ccc12)[C@@H]1CCN(S(=O)(=O)c2ccccc2)C1`, for which the pIC50 in data set [1] is 6.37; in data set [3], 7.55.

As to `CN(c1ncnc2[nH]ccc12)[C@@H]1CCN(C(=O)Nc2ccccc2)C1`, the pIC50 is 6.26 in data set [1] and 7.66 in data set [3].

Consider `N#CCC(=O)N1CC[C@@H](N(CC2CC2)c2ncnc3[nH]ccc23)C1`, for which the pIC50 in data set [1] is 5.77; in data set [3] it was 6.80.

Turning to `CCCS(=O)(=O)N1CC[C@@H](N(C)c2ncnc3[nH]ccc23)C1`, the values for the pIC50 in data set [1] and in data set [3] were 6.34 and 7.47, respectively.

As for `CN(c1ncnc2[nH]ccc12)[C@@H]1CCN(S(=O)(=O)c2cccc(C#N)c2)C1`, the pIC50 in data set [1] was 7.24; in data set [3] it was 8.39. In addition, the amount remaining at 0.5 h was 10% in data set [2], 26.3% in data set [4], 31.6% in data set [5] and 3.7% in data set [6].

`CCS(=O)(=O)N1CC[C@@H](N(C)c2ncnc3[nH]ccc23)C1`: the negative-log IC50 (pIC50) in data set [1] is 5.62; in data set [3] it was 7.10.

As for `CN(c1ncnc2[nH]ccc12)[C@@H]1CCN(S(=O)(=O)c2ccc([N+](=O)[O-])cc2)C1`, the pIC50 in data set [1] is 7.05; in data set [3], 8.44.

On to `CN(c1ncnc2[nH]ccc12)[C@@H]1CCN(S(C)(=O)=O)C1`, for which the pIC50 in data set [1] is 5.33; in data set [3] it was 7.15.

Turning to `CN(c1ncnc2[nH]ccc12)[C@@H]1CCN(S(=O)(=O)c2ccc(C#N)cc2)C1`, the pIC50 is 5.92 in data set [1] and 7.96 in data set [3].

With `CN(c1ncnc2[nH]ccc12)[C@@H]1CCN(S(=O)(=O)c2ccc(F)cc2)C1`, the pIC50 in data set [1] is 6.96; in data set [3] it was 7.96.

With `Cc1ccc(S(=O)(=O)N2CC[C@@H](N(C)c3ncnc4[nH]ccc34)C2)cc1`, the pIC50 in data set [1] is 5.74; in data set [3], 7.72.

Take `CCN(c1ncnc2[nH]ccc12)[C@@H]1CCN(C(=O)CC#N)C1`: the pIC50 is 5.89 in data set [1] and 7.21 in data set [3].

Regarding `CN(c1ncnc2[nH]ccc12)[C@@H]1CCN(S(=O)(=O)c2ccc(C(F)(F)F)cc2)C1`, the pIC50 in data set [1] was 5.47; in data set [3], 8.02. In addition, the amount remaining at 0.5 h in data set [2] amounted to 8.4%; in data set [4] it was 21%; in data set [5] it was 14.2%; in data set [6], 11.4%.

With `CN(c1ncnc2[nH]ccc12)[C@@H]1CCN(S(=O)(=O)N2CCCCC2)C1`, the values for the pIC50 in data set [1] and in data set [3] were 5.41 and 7.18, respectively.

`CN(c1ncnc2[nH]ccc12)[C@@H]1CCN(S(=O)(=O)c2ccccc2C#N)C1`: the pIC50 in data set [1] was 6.43; in data set [3], 7.28.

Turning to `CN(c1ncnc2[nH]ccc12)[C@@H]1CCN(S(=O)(=O)c2ccccc2[N+](=O)[O-])C1`, the pIC50 in data set [1] is 5.96; in data set [3] it was 6.96.

On to `COc1ccc(S(=O)(=O)N2CC[C@@H](N(C)c3ncnc4[nH]ccc34)C2)cc1`, for which the values for the pIC50 in data set [1] and in data set [3] were 5.82 and 7.59, respectively.

`CN(c1ncnc2[nH]ccc12)[C@H]1CN(C(=O)CC#N)CC1(C)C`: the results for the pIC50 in data set [1] and in data set [3] were 5.23 and 6.59, respectively.

Turning to `CN(c1ncnc2[nH]ccc12)[C@@H]1CCN(S(=O)(=O)c2ccc3ccccc3c2)C1`, the pIC50 in data set [1] was 6.16; in data set [3], 7.89.

As to `CC(C)COC(=O)N1CC[C@@H](N(C)c2ncnc3[nH]ccc23)C1`, the pIC50 in data set [1] was 5.37; in data set [3], 6.96.
